Earlier results in US20110033519A1, “Device with Aromatase Inhibitor for the Treatment and Prevention of Uterine Fibroids and Method of Use” (priority 2009, published 2011).
Where two headings read alike, the source gives them in different places.

Columns and labels:
fibroids = details: three months
human sperm = details: incubated in a solution of copper ions; after 120 minutes

## CC(C)(C#N)c1cc(Cn2cncn2)cc(C(C)(C)C#N)c1 [Anastrozole]
fibroids; oral, 1 mg/day
  reduction in fibroid volume: 56%

## N#Cc1ccc(C(c2ccc(C#N)cc2)n2cncn2)cc1 [Letrozole]
fibroids; study of 35 women, 2.5 mg per day orally
  reduction in fibroid volume: 45%
fibroids; trial of 16 women, oral, 5 mg/day
  reduction in fibroid volume: 47%

## copper ions
Human sperm
  human sperm immotile: Ninety-five
